Experimental data: US20030130636A1, “System for improving skin health of absorbent article wearers” (priority 2001, published 2003)
Values joined by “and” are separate entries in the source; they are usually repeats but may differ in a detail not shown here. Equal entries are not always repeated.

Columns and labels:
EPIDERM skin culture [1] = test: MTT assay, viability of EPIDERM skin culture; format: cell-based, human; conditions: 0.4% (w/v) in PBS + protease insult, relative to control+control
Source text: The MTT dye is taken up by the cells. The reduction of the dye as a result of cellular metabolism can be used to measure the cytotoxicity of the test compositions. In order to confirm viability, inserts of the EPIDERM skin culture that have already been subjected to the test compositions and biological insults are removed from their media and are washed consecutively through immersion in three different beakers of PBS. Fresh PBS is used for each test composition or control being evaluated. The PBS is discarded onto paper towel. The EPIDERM skin culture inserts are then patted onto paper towel and placed into the wells of a 24 well plate containing 300 microliters of pre-warmed media. After all of the EPIDERM skin culture inserts are washed, they are transferred to new 24 well plates containing 300 microliters of the MTT reagent. […] The plates are incubated for 2-3 hours in a 37° C., 5% CO2 incubator. After incubation, the EPIDERM skin culture inserts are transferred to 24 well plates and are immersed in 2 milliliters of MTT extraction buffer. The extraction buffer extracts the MTT reagent from the cells. […] The optical density (OD) of the samples is measured at 570 nm using a spectrophotometer. […] This reading is subtracted from a background reading at 650 nm to improve data quality.

EPIDERM skin culture [2] = test: EPIDERM skin culture study: IL-1α response to fecal protease (trypsin-chymotrypsin) insult; format: cell-based, human; conditions: six hours, one value per set of experiments
Procedure: In order to evaluate the efficacy of the skin care solutions of the invention, a human skin culture was selected to model the response of the human epidermis. EPIDERM skin culture is a cornified, air-interfaced human skin culture. EPIDERM skin culture has multiple layers of progressively differentiated keratinocytes resembling human epidermis. EPIDERM EPI-200 skin culture can be purchased from MatTek Corporation of Ashland, MA. Experiments using EPIDERM skin culture are conducted in six well plates. Each well contains one milliliter of pre-warmed media that is the same as the EPIDERM skin culture media. The plates are then incubated in a 37° C., 5% CO2 incubator for thirty minutes. […]
After application of the insult solution, the well plates are incubated for six hours in the 37° C., 5% CO2 incubator. […] The response of the EPIDERM skin culture to the test compositions/control and the insult solution is determined by measuring the amount of interleukin-1 alpha (hereinafter “IL-1α”). Interleukin-1 alpha can be quantified using an Interleukin-1 alpha Quantikine Kit available from R&D Systems of Minneapolis, Minnesota. Interleukin-1 alpha measurements are converted to Loges for each of the treatments and the averages for each treatment are calculated. […]
(Test composition+insult) result=the measured amount of IL-1α from treatment with a test composition+protease insult. […]

SMILES | Viability (percentage) (EPIDERM skin culture [1]) | Mean Reduction of Interleukin-1 Alpha (percentage) (EPIDERM skin culture [2]; 1% in PBS) | Mean Reduction of Interleukin-1 Alpha (percentage) (EPIDERM skin culture [2]; 10% in PBS)
O=C(O[C@@H]1Cc2c(O)cc(O)cc2O[C@@H]1c1cc(O)c(O)c(O)c1)c1cc(O)c(O)c(O)c1 [Epigallocatechin gallate] | 103% and 101% and 112% |  | 
[Cl-].[Cl-].[Sr+2] [Strontium Chloride] |  | 0% (10) | 15% (10)
